Legend:
[1] = target: T1, SIK1 (Homo sapiens, UniProt P57059); assay: ADP-Glo kinase assay, SIK1; format: biochemical; details: ADP-Glo SIK kinase assay
T1 construct: purchased Carna Biosciences 02-131
Procedure, shortened: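 Enzyme–substrate mix was started with ATP and incubated 120 min at RT. ADP formed was quantified by ADP-Glo: 40 min ATP depletion, then 30 min detection reagent converting ADP to ATP for luciferase luminescence, which rises with kinase activity. Controls: 1% DMSO and 10 μM staurosporine (final).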

[2] = target: T2, SIK2 (Homo sapiens, UniProt Q9H0K1); assay: ADP-Glo kinase assay, SIK2; format: biochemical; details: ADP-Glo SIK kinase assay
T2 construct: purchased ThermoFisher Scientific PV4792
Procedure, shortened: (§1)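 ADP-Glo luminescent assay of ADP formed by SIK2 or SIK3 with substrate after ATP addition, 120 min at RT. Remaining ATP depleted 40 min, then ADP converted to ATP and read by luciferase luminescence after 30 min. Controls: 1% DMSO and 10 μM staurosporine (final).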

[3] = target: T3, SIK3 (Homo sapiens, UniProt Q9Y2K2); assay: ADP-Glo kinase assay, SIK3; format: biochemical; details: ADP-Glo SIK kinase assay
T3 construct: purchased SignalChem S12-11G-100
Procedure, shortened: as §1

[4] = system: LPS triggered IL-10 secretion in monocyte-derived macrophages (MdM); assay: MdM assay: LPS-triggered IL-10 (ELISA); format: cell-based, human; details: LPS 200 ng/mL, supernatant after 2 h, maximal fold change vs LPS only
Description: SIK inhibition inhibits TNFα and increases IL-10 release in LPS triggered monocyte-derived macrophages (MdM) and dendritic […] al. 2012; Sundberg et al. 2014; Ozanne et al. 2015). This assay evaluates illustrative compounds of the invention for their inhibition of LPS-induced TNFα and LPS triggered IL-10 secretion in monocyte-derived macrophages. PBMCs are isolated from human blood samples (buffycoats). The buffy coat is aseptically transferred into a 50 mL Falcon tube, and diluted 1/2 in PBS. Falcon tubes are filled with 20 mL LymphoprepTM, on top of which 25 mL of the buffy coat is carefully added, tubes are centrifuged for 35 min at 400 g in temperature controlled centrifuge, without brake, at 25° C. PBMCs are aspirated from the white interface layer between sample and LymphoprepTM. PBMCs are washed five times in PBS. Cells are resuspended in RPMI 1640 complete medium supplemented with 10% FBS, 1% P/S, and cell density is determined using a hematologic analyzer (Sysmex XS-500i). PBMCs are centrifuged at 300×g for 10 min and resuspended at a density of 1.0*10^7 cells/80 μL Miltenyi buffer (PBS, pH 7.4, 1% FBS, 2 mM EDTA). Starting from this point of the protocol all steps are performed on ice. 20 μL of CD14+ micro-beads are added per 1.0*10^7 cells, the tube is mixed and incubated for 15 min in the fridge at 4° C. Cell suspension volume is adjusted to total volume of 100 mL using Miltenyi buffer, mixed gently and subsequently centrifuged for 10 min at 300×g. Supernantant is discarded and cell pellet is resuspended in 12 mL of Miltenyi buffer. Four LS columns are placed in the MACS Separator (magnet) from Miltenyi Biotec, and are prewet by rinsing with 3 mL of MACS buffer per column. Three mL of cell suspension is added onto the column (max 1*10^8 of labelled cells/column), and columns are subsequently washed 3 times with 3 mL of Miltenyi buffer. The columns are removed from the magnets, and 5 mL of Miltenyi buffer are added to the column to flush out the CD14+ fraction by pushing the plunger into the column. The flushed fractions are collected in a fresh 50 mL Falcon and volume is adjusted to 30 mL using Miltenyi buffer, cells are centrifuged for 10 min at 300×g. The obtained cell pellet is resuspended in 10 mL RPMI w/o FBS, and cell density is determined using a hematologic analyser (Sysmex XS-500i). 100 000 cells are seeded per well of a 96-well plate for differentiation to MdM in RPMI 1640 medium supplemented with 10% FBS, 1% P/S and 100 ng/mL rhM-CSF. On day 5 the medium is refreshed with 100 μL RPMI 1640 medium supplemented with 10% FBS, 1% P/S and 100 ng/mL rhM-CSF. On day 10, MdMs are triggered and compound is added. A compound dilution plate is made in 100% DMSO by 3-fold dilution of 10 mM stock solution. An intermediate dilution plate (10× final concentration) is made by diluting the compound dilution plate 50-fold in RPMI medium. Medium is carefully removed from cell plates using multichannel pipette, and replaced by 80 μL fresh medium. 10 μL of the 10× final concentration compound is added to the cells and incubated for 1 hour at 37° C. before addition of trigger. No trigger conditions/trigger conditions are spiked with equal final DMSO concentrations of 0.2% DMSO. 10 μL of 10×LPS (final conc. 200 ng/mL) solution are added to all wells except for the 'no trigger wells' where 10 μL medium is added. Supernatant is collected after 2 h (IL-10 determination) and after 20 h (TNFα determination) of LPS triggering. […]

T1 sequence (P57059 whole entry): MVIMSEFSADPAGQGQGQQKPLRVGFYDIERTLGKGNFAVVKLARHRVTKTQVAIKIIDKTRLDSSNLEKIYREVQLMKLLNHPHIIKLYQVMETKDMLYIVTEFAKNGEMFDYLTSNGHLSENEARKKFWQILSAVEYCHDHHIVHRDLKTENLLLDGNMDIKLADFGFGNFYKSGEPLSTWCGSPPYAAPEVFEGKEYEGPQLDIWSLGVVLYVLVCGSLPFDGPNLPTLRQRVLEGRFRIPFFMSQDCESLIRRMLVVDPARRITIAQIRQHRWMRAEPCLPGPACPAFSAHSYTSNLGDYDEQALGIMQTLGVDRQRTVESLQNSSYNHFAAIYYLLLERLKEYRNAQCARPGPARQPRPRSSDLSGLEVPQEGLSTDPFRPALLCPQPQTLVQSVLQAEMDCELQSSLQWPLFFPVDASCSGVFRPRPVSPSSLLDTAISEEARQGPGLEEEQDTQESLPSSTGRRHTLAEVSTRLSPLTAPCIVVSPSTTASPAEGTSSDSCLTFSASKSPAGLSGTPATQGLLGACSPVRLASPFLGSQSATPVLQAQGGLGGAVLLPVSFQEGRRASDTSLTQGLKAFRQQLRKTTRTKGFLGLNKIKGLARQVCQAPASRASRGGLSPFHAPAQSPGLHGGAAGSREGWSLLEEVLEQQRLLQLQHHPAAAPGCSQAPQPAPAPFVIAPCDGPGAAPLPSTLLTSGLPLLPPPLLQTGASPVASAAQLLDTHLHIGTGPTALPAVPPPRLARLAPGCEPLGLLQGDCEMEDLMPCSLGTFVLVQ
T2 sequence (Q9H0K1 whole entry): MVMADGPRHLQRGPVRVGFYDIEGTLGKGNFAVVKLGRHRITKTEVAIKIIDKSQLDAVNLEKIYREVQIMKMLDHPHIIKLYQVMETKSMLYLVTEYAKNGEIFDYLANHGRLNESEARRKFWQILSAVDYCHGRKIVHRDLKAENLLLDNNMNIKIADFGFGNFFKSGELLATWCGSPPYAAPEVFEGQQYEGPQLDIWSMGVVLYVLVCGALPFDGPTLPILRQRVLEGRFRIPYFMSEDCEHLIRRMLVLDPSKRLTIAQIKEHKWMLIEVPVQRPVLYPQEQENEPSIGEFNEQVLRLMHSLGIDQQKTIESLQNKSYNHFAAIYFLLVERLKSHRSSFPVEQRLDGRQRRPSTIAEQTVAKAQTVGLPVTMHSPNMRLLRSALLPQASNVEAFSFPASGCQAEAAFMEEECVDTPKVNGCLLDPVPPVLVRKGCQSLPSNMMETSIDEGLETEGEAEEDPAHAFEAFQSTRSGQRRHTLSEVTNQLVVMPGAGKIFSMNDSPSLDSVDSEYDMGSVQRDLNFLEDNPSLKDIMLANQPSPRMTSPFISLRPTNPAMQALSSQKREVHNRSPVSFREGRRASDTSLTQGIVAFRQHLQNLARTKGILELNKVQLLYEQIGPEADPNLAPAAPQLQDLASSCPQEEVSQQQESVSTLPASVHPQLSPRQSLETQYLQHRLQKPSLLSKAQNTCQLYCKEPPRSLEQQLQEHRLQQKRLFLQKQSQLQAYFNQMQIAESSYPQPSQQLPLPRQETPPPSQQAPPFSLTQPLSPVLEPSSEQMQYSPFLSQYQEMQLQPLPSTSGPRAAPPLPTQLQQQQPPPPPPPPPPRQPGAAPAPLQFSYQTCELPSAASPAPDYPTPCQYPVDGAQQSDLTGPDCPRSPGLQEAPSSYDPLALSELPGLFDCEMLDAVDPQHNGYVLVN
T3 sequence (Q9Y2K2 whole entry): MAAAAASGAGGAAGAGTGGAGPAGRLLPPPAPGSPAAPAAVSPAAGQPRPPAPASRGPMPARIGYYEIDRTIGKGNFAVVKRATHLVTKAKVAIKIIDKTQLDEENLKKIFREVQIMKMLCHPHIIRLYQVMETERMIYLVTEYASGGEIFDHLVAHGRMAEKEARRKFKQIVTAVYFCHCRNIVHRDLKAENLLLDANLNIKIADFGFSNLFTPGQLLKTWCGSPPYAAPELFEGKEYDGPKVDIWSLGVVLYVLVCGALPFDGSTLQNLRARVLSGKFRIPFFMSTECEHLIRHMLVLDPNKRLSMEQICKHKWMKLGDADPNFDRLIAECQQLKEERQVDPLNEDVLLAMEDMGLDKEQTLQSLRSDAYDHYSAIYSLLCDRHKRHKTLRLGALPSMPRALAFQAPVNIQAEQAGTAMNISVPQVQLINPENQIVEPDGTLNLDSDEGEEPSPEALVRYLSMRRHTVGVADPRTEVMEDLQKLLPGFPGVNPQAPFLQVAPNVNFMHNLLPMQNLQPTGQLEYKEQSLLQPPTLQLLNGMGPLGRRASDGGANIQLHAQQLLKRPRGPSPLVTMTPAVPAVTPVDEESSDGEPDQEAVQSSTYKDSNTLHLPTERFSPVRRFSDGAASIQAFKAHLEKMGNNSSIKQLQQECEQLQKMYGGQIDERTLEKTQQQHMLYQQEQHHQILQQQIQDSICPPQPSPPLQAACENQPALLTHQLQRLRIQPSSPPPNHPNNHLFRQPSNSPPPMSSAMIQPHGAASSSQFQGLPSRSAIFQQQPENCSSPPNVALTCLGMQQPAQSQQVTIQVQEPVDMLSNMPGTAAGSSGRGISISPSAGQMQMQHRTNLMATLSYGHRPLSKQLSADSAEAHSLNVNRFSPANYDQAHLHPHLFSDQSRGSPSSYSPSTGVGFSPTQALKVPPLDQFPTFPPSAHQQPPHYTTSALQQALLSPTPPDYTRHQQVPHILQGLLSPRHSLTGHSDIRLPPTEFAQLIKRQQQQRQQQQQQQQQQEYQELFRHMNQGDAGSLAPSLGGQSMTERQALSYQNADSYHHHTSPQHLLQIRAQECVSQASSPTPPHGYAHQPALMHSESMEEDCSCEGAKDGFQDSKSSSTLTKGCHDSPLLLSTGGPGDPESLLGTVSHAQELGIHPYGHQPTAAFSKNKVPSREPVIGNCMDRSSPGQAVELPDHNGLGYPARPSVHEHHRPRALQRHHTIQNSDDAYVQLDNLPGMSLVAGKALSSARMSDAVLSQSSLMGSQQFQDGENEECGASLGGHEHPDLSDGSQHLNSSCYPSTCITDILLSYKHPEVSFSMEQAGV

| IC50 [1] | IC50 [2] | IC50 [3] | SMILES | IL-10 FCmax median [4] |
| --- | --- | --- | --- | --- |
| 100 to 500 nM | 0.01 to 10 nM | 0.01 to 10 nM | COc1cc(-c2cnc3cc(OC[C@@H]4CN(C)CCO4)ccn23)cc2c1C(=O)N(CC(F)(F)F)CC2 [compound 191, 8-methoxy-6-[7-[[(2S)-4-methylmorpholin-2-yl]methoxy]imidazo [1,2-a]pyridin-3-yl]-2-(2,2,2-trifluoroethyl)-3,4-dihydroisoquinolin-1-one] | ++ (>1.5-4.5) |
| 0.01 to 10 nM | 0.01 to 10 nM | 0.01 to 10 nM | COc1cc(-c2cnc3cc(OCCCN4CCNCC4)ccn23)cc(OC(F)F)c1C(=O)NC1CC1 [compound 278, N-cyclopropyl-2-(difluoromethoxy)-6-methoxy-4-[7-(3-piperazin-1-ylpropoxy)imidazo[1,2-a]pyridin-3-yl]benzamide] | ++ (>1.5-4.5) |
| 100 to 500 nM | 0.01 to 10 nM | 0.01 to 10 nM | COc1cc(-c2cnc3cc(OCCN(C)C)ccn23)cc(OC(F)F)c1C(=O)NCC(F)(F)F [compound 166, 2-(difluoromethoxy)-4-[7-[2-(dimethylamino)ethoxy]imidazo[1,2-a]pyridin-3-yl]-6-methoxy-N-(2,2,2-trifluoroethyl)benzamide] | ++ (>1.5-4.5) |
| 100 to 500 nM | 0.01 to 10 nM | 0.01 to 10 nM | COc1cc(-c2cnc3cc(OC[C@H]4CN(C)CCO4)ccn23)cc2c1C(=O)N(CC(F)(F)F)CC2 [compound 190, 8-methoxy-6-[7-[[(2R)-4-methylmorpholin-2-yl]methoxy]imidazo[1,2-a]pyridin-3-yl]-2-(2,2,2-trifluoroethyl)-3,4-dihydro isoquinolin-1-one] | ++ (>1.5-4.5) |
| 10 to 100 nM | 0.01 to 10 nM | 0.01 to 10 nM | COc1cc(-c2cnc3cc(OCCN4CCOC[C@@H]4C)ccn23)cc(OC(F)F)c1C(=O)NC1CC1 [compound 233, N-cyclopropyl-2-(difluoromethoxy)-6-methoxy-4-[7-[2-[(3S)-3-methylmorpholin-4-yl]ethoxy]imidazo[1,2-a]pyridin-3-yl]benzamide] | ++ (>1.5-4.5) |
| 10 to 100 nM | 0.01 to 10 nM | 0.01 to 10 nM | COc1cc(-c2cnc3cc(OCCCN4CCCC(O)C4)ccn23)cc(OC(F)F)c1C(=O)NC1CC1 (centres unmarked) [compound 328, N-cyclopropyl-2-(difluoromethoxy)-4-[7-[3-(3-hydroxy-1-piperidyl)propoxy]imidazo [1,2-a]pyridin-3-yl]-6-methoxy-benzamide] | ++ (>1.5-4.5) |
| 10 to 100 nM | 0.01 to 10 nM | 0.01 to 10 nM | COc1cc(-c2cnc3cc(OCCN4C[C@@H]5C[C@H]4CO5)ccn23)cc(OC(F)F)c1C(=O)NC1CC1 [compound 206, N-cyclopropyl-2-(difluoromethoxy)-6-methoxy-4-[7-[2-[(1S,4S)-2-oxa-5-azabicyclo[2.2.1]heptan-5-yl]ethoxy]imidazo[1,2-a]pyridin-3-yl]benzamide] | ++ (>1.5-4.5) |
| 10 to 100 nM | 0.01 to 10 nM | 0.01 to 10 nM | CCOC(=O)C1(F)CCN(CC(O)COc2ccn3c(-c4cc(OC)c(C(=O)NC5CC5)c(OC(F)F)c4)cnc3c2)CC1 (centres unmarked) [compound 384, ethyl 1-[3-[3-[4-(cyclopropylcarbamoyl)-3-(difluoromethoxy)-5-methoxy-phenyl]imidazo[1,2-a]pyridin-7-yl]oxy-2-hydroxy-propyl]-4-fluoro-piperidine-4-carboxylate] | ++ (>1.5-4.5) |

Second part, the compound before the results:

| SMILES | IC50 [1] | IC50 [2] | IC50 [3] | IL-10 FCmax median [4] |
| --- | --- | --- | --- | --- |
| COc1cc(-c2cnc3cc(OCC4CCCCN4C)ccn23)cc(OC(F)F)c1C(=O)NC1CC1 (centres unmarked) [compound 23, N-cyclopropyl-2-(difluoromethoxy)-6-methoxy-4-[7-[(1-methyl-2-piperidyl)methoxy]imidazo[1,2-a]pyridin-3-yl]benzamide] | 100 to 500 nM | 0.01 to 10 nM | 0.01 to 10 nM | ++ (>1.5-4.5) |
| CNc1cc(-c2cnc3cc(OCCN(C)C)ccn23)cc(OC(F)F)c1C(=O)NCC(F)(F)F [Cpd 165, 2-(difluoromethoxy)-4-[7-[2-(dimethylamino)ethoxy]imidazo[1,2-a]pyridin-3-yl]-6-(methylamino)-N-(2,2,2-trifluoroethyl)benzamide] | 100 to 500 nM | 0.01 to 10 nM | 0.01 to 10 nM | ++ (>1.5-4.5) |
| COc1cc(-c2cnc3cc(OCCN(C)C)ccn23)cc2c1C(=O)N(CC(F)F)CC2 [compound 54, 2-(2,2-difluoroethyl)-6-[7-[2-(dimethylamino)ethoxy]imidazo [1,2-a]pyridin-3-yl]-8-methoxy-3,4-dihydro isoquinolin-1-one] | > 500 nM | 0.01 to 10 nM | 10 to 100 nM | ++ (>1.5-4.5) |
| COc1cc(-c2cnc3cc(OCC4CN(C)CCO4)ccn23)cc2c1C(=O)N(CC(F)(F)F)CC2 (centres unmarked) [compound 127, 8-methoxy-6-[7-[(4-methylmorpholin-2-yl)methoxy]imidazo[1,2-a]pyridin-3-yl]-2-(2,2,2-trifluoroethyl)-3,4-dihydroisoquinolin-1-one] | 100 to 500 nM | 0.01 to 10 nM | 0.01 to 10 nM | ++ (>1.5-4.5) |
| COc1cc(-c2cnc3cc(OCCN)ccn23)cc(OC(F)F)c1C(=O)NC1CC1 [compound 118, 4-[7-(2-aminoethoxy)imidazo[1,2-a]pyridin-3-yl]-N-cyclopropyl-2-(difluoromethoxy)-6-methoxy-benzamide] | 10 to 100 nM | 0.01 to 10 nM | 0.01 to 10 nM | ++ (>1.5-4.5) |
| COc1cc(-c2cnc3cc(OCc4ccnn4C)ccn23)cc(OC(F)F)c1C(=O)NC1CC1 [compound 44, N-cyclopropyl-2-(difluoromethoxy)-6-methoxy-4-[7-[(2-methylpyrazol-3-yl)methoxy]imidazo[1,2-a]pyridin-3-yl] benzamide] | 10 to 100 nM | 0.01 to 10 nM | 0.01 to 10 nM | + (≤1.5) |
| COc1cc(-c2cnc3cc(OC(C)C(F)(F)F)ccn23)cc(OC(F)F)c1C(=O)NC1CC1 (centres unmarked) [compound 45, N-cyclopropyl-2-(difluoromethoxy)-6-methoxy-4-[7-(2,2,2-trifluoro-1-methyl-ethoxy)imidazo[1,2-a]pyridin-3-yl]benzamide] | 100 to 500 nM | 10 to 100 nM | 0.01 to 10 nM | + (≤1.5) |
| COc1cc(-c2cnc3cc(OCC4CCO4)ccn23)cc2c1C(=O)N(CC(F)(F)F)CC2 (centres unmarked) [compound 125, 8-methoxy-6-[7-(oxetan-2-ylmethoxy)imidazo[1,2-a]pyridin-3-yl]-2-(2,2,2-trifluoroethyl)-3,4-dihydroisoquinolin-1-one] | 100 to 500 nM | 0.01 to 10 nM | 0.01 to 10 nM | ++ (>1.5-4.5) |
| COc1cc(-c2cnc3cc(OCCN4CCOCC4)ccn23)cc2c1C(=O)N(CC(F)(F)F)CC2 [Cpd 88, 8-methoxy-6-[7-(2-morpholinoethoxy)imidazo [1,2-a]pyridin-3-yl]-2-(2,2,2-trifluoroethyl)-3,4-dihydroisoquinolin-1-one] | – | – | – | ++ (>1.5-4.5) |
